The values that follow come from patent US12528794B2, “MAO-B inhibitor DRG-MAOB-1 for use in treatment of neurodegenerative diseases” (BAHCESEHIR UNIVERSITESI, priority 2020, dated 2026).

The structures appear in SMILES notation.

The target of one assay is T1, human MAO-A (Homo sapiens, UniProt P21397).
T1 sequence (P21397 1-527): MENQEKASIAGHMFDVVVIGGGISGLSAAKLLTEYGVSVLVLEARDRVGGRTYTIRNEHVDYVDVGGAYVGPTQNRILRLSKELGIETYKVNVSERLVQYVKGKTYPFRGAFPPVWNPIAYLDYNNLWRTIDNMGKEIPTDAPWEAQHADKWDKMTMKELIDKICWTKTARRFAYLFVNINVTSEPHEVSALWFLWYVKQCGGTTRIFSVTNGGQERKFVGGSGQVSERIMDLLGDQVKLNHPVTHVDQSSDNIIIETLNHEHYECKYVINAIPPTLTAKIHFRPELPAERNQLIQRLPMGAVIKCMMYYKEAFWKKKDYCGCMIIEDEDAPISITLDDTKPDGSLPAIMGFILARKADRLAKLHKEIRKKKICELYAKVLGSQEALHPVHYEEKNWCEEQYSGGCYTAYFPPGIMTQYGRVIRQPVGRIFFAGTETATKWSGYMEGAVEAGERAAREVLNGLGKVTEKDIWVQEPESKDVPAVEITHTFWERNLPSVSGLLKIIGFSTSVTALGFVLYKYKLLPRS
The experiment in a line: MAO inhibitory assay (kynuramine, fluorescence), MAO-A. Type of assay: biochemical. Conditions: human recombinant enzyme, kynuramine substrate, 37° C., triplicate. On the procedure: (§1) MAO inhibitory activity was assayed using the method of Novaroli et al. with minor modifications. Briefly, 140 μL of 0.1 M potassium phosphate buffer (pH 7.4), 8 μL of 0.75 mM kynuramine, and 2 μL of a dimethyl sulfoxide (DMSO) inhibitor solution (final DMSO concentration of 1% (v/v) and final concentrations of the inhibitors of 0-1 μM), were preincubated at 37° C. for 10 min. Diluted human recombinant enzyme (50 μL) was then added to obtain a final protein concentration of 0.0075 mg/mL (MAO-A) or 0.015 mg/mL (MAO-B) in the assay mixture. The reaction mixture was further incubated at 37° C. and the reaction was stopped after 20 min by the addition of 75 μL of 2 M NaOH. The product generated by MAO, 4-quinolinol, is fluorescent and was measured at Ex 310 nm/Em 400 nm using a microplate reader (Thermo Scientific-Multiskan GO). Each data points of samples were triplicate. The sample solution was replaced with DMSO to provide a negative control. The IC50 values were calculated from a line through two points which sandwiched the point of 50% (IC50) by plotting the remained activity (%) related to control (100%) versus the logarithm of the inhibitor concentration to obtain a sigmoidal dose-response curve

The target of another assay is T2, human MAO-B (Homo sapiens, UniProt P27338).
T2 sequence (P27338 1-520): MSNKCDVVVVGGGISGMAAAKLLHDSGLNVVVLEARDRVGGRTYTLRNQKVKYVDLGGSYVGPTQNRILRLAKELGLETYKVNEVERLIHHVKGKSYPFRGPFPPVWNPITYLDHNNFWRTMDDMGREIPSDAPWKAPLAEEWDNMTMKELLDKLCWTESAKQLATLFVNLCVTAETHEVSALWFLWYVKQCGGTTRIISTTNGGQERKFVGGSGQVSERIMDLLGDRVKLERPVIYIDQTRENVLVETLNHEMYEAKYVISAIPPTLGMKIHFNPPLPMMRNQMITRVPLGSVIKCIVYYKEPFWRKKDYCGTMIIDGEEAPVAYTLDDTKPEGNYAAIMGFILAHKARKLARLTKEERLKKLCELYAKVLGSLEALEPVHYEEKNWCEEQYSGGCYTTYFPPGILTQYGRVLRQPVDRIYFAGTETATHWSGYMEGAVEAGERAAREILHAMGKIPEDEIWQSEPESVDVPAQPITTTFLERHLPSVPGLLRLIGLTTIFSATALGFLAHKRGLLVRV
The assay can be described thus: MAO inhibitory assay (kynuramine, fluorescence), MAO-B. Type of assay: biochemical. On the procedure: as §1

In the case of `Cn1nc(C(=O)NCCc2nc3ccccc3[nH]2)c2ccccc21` (racemic) [compound of formula I], the IC50 came to 54.8 ± 1.9 nM on human MAO-A and 4.02 ± 0.03 nM on human MAO-B (human recombinant enzyme, kynuramine substrate, 37° C., triplicate). Further, the “fold more potent binding to MOA-B compared to MOA-A” value on human MAO-B (MAO-B over MAO-A, from IC50 values) is “approximately 13 fold”.
